Laboratory results taken from patent US11136311B2, “Heteroaromatic derivatives as NIK inhibitors” (Janssen Pharmaceutica NV, priority 2016, dated 2021).
Like-named read-outs stand apart in the source and are kept apart here.

Assays:
[1] = target: recombinant human NF-kappaB-inducing kinase (NIK/MAP3K14) (Homo sapiens (Human), UniProt Q99558); assay: Inhibition of auto-phosphorylation of recombinant human NIK/MAP3K14 activity (AlphaScreen); assay type: biochemical; settings: averaged values over all measurements on all batches
Chain of recombinant human NF-kappaB-inducing kinase (NIK/MAP3K14) (Q99558 whole entry): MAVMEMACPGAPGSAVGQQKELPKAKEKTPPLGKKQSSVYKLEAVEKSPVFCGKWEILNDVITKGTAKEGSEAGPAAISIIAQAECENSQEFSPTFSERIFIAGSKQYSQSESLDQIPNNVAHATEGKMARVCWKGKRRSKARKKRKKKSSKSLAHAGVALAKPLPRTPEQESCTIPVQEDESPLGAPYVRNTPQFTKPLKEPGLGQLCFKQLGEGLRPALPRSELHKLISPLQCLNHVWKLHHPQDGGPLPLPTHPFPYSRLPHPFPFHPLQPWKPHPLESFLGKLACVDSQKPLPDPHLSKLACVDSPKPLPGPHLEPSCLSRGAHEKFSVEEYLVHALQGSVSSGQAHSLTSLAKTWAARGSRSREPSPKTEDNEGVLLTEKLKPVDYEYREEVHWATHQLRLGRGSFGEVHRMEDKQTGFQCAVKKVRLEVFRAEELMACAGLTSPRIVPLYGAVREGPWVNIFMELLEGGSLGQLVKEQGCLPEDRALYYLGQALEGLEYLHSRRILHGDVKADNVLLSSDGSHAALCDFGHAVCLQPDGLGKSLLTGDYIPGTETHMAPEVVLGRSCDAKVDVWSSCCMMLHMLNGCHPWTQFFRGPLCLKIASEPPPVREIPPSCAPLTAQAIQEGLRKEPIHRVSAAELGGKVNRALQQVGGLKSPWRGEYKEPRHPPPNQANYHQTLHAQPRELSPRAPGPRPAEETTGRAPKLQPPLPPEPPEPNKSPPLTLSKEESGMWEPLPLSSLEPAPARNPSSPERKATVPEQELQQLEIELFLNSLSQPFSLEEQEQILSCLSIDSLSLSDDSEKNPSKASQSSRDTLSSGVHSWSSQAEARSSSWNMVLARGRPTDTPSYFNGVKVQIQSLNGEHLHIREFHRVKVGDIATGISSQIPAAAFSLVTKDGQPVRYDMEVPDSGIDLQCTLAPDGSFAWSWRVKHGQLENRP
Procedure, shortened: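 GST-tagged NIK at 0.2 nM autophosphorylated for 1 h at 25° C with 25 microM ATP in Tris pH 7.5, MgCl2, 1% DMSO. Phospho-IKK Ser176/180 antibody with AlphaScreen beads detected product. IC50 came from sigmoidal fits of blank-corrected % inhibition.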

KMS12-BM cells = assay: Antiproliferative activity on KMS12-BM (NIK WT) multiple myeloma cells (CellTiter-Glo); assay type: cell-based, human; settings: KMS12-BM (NIK WT) cells, 96 hr, averaged values, read-out: KMS-12 Proliferation inhibition (IC50 (nM))
Procedure, shortened: (§1)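 Suspension myeloma cells in RPMI 1640 with 10% FCS, plated at 15000 (JJN-3) or 20000 (KMS12-BM) cells/well, were treated 96 hr with 9-point 1:3 compound dilutions at 0.3% DMSO. CellTiter-Glo luminescence, minus a time-zero blank, was expressed as % of untreated control growth.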

JJN-3 cells = assay: Antiproliferative activity on JJN-3 (NIK translocated) multiple myeloma cells (CellTiter-Glo); assay type: cell-based, human; settings: JJN-3 (NIK translocated) cells, 96 hr, averaged values, read-out: JJN-3 Proliferation inhibition (IC50 (nM))
Procedure, shortened: as §1

[2] = tested on: P-IKKα levels in L363 cells; assay: Effect of compounds on P-IKKα levels in L363 (NIK translocated multiple myeloma) cells; assay type: cell-based, human; settings: averaged values, read-out: Inhibition of pIKKα_L-363 (IC50 (nM))
Procedure, shortened: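 L363 myeloma cells were primed 24 h with BAFF, then treated 2 h with compound (8-point, 1:3 dilutions, 1% DMSO) at 37°C. P-IKKα in lysates was measured by Mesoscale sandwich immunoassay, with the full-inhibition blank subtracted. IC50 came from a sigmoidal fit of % inhibition of control against log concentration.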

[3] = Homo sapiens, L-363, L363 cells

| Compound | IC50 [1] [nM] | IC50 (KMS12-BM cells; Homo sapiens, KMS-12-BM, 96 h) [nM] | IC50 (JJN-3 cells; Homo sapiens, JJN-3, 96 h) [nM] | IC50 [2, 3] [nM] | IC50 (KMS12-BM cells) [nM] | IC50 (JJN-3 cells) [nM] | IC50 ([2]; L363 cells) [nM] |
| --- | --- | --- | --- | --- | --- | --- | --- |
| Cc1nn(CC(F)F)cc1Nc1nccc(-c2cc(C#N)c3c(c2)[C@@](C)(CO)CN3)n1 [Compound 132] | 1 | ~1860 | 58 | 2 |  |  |  |
| C[C@]1(CO)CNc2c(C#N)cc(-c3ccnc(Nc4cc(Cl)nn4C[C@H]4COCCO4)n3)cc21 [Compound 133] | 6.9 | 6610 | 389 | 65 |  |  |  |
| C[C@]1(CO)CNc2c(C#N)cc(-c3ccnc(Nc4cc(Cl)nn4CC4CCN(CCF)CC4)n3)cc21 [Compound 134] | 4.8 | 2240 | 47 | 107 |  |  |  |
| Cc1cc(Nc2nccc(-c3cc(C#N)c4c(c3)[C@@](C)(CO)CN4)n2)n(CC(=O)O)n1 [Compound 135] | 5.1 | > 10000 | > 10000 | 229 |  |  |  |
| Cc1cc(Nc2nccc(-c3cc(C#N)c4c(c3)C(C)(CO)CN4)n2)n(CC2CCN(CC(=O)N(C)C)CC2)n1 (centres unmarked) [Compound 136] | 7.2 | > 10000 | 724 | 562 |  |  |  |
| Cc1cc(Nc2nccc(-c3cc(C#N)c4c(c3)[C@@](C)(CO)CN4)n2)n(CC2CCN(CC(F)(F)F)CC2)n1 [Compound 137] | 6.3 | > 10000 | 676 | 36 |  |  |  |
| COCCN1CCC(Cn2nc(Cl)cc2Nc2nccc(-c3cc(C#N)c4c(c3)[C@@](C)(CO)CN4)n2)CC1 [Compound 138] | 8.3 | 2570 | 44 | 178 |  |  |  |
| Cc1cc(Nc2nccc(-c3cc(C#N)c4c(c3)[C@@](C)(CO)CN4)n2)n(C[C@@H]2CN(C)CCO2)n1 [Compound 139] | 13 | > 10000 | 1120 | 182 |  |  |  |
| Cc1nc(Nc2nccc(-c3cc(C#N)c4c(c3)[C@@](C)(CO)CN4)n2)sc1C(=O)N(C)C [Compound 149] | 0.7 | ~741 | 50 | 8 |  |  |  |
| Cn1cc(Nc2nccc(-c3cc(C#N)c4c(c3)[C@@](C)(CO)CN4)n2)c(CN2CCOCC2)n1 [Compound 150] | 15 | > 10000 | 2400 | 170 |  |  |  |
| CC(C)Cn1nc(CO)cc1Nc1nccc(-c2cc(C#N)c3c(c2)[C@@](C)(CO)CN3)n1 [Compound 151] | 2 | 7080 | 871 | 13 |  |  |  |
| C[C@]1(CO)CNc2c(C#N)cc(-c3ccnc(Nc4cc(Cl)nn4CC4CCN(CC(F)(F)F)CC4)n3)cc21 [Compound 152] | 17 | 7940 | 646 | 135 |  |  |  |
| COCCn1nc(CO)cc1Nc1nccc(-c2cc(C#N)c3c(c2)[C@@](C)(CO)CN3)n1 [Compound 153] | 4.3 | > 10000 | 1440 | 28 |  |  |  |
| Cc1cc(Nc2nccc(-c3cc(C#N)c4c(c3)[C@@](C)(CO)CN4)n2)n(CCC2(C)COC2)n1 [Compound 154] | 4.9 | 2290 | 646 | 15 |  |  |  |
| COCCN1CCC(Cn2nc(C)cc2Nc2nccc(-c3cc(C#N)c4c(c3)[C@@](C)(CO)CN4)n2)CC1 [Compound 155] | 9.3 | > 10000 | 59 | 126 |  |  |  |
| CC(C)n1nc(CO)cc1Nc1nccc(-c2cc(C#N)c3c(c2)[C@@](C)(CO)CN3)n1 [Compound 156] | 3.6 | ~7240 | 1260 | 14 |  |  |  |

| Compound | IC50 [1] [nM] | IC50 (KMS12-BM cells; Homo sapiens, KMS-12-BM, 96 h) [nM] | IC50 (JJN-3 cells; Homo sapiens, JJN-3, 96 h) [nM] | IC50 [2, 3] [nM] | IC50 (KMS12-BM cells) [nM] | IC50 (JJN-3 cells) [nM] | IC50 ([2]; L363 cells) [nM] |
| --- | --- | --- | --- | --- | --- | --- | --- |
| C[C@@]1(CO)CNc2c(C#N)cc(-c3ccnc(Nc4cnn(CCC5CC5)c4CN4CCOCC4)n3)cc21 [Compound 159] | 10 |  |  |  | > 10000 | 1510 | 91 |
| CN1CCC(F)(Cn2nc(Cl)cc2Nc2nccc(-c3cc(C#N)c4c(c3)[C@@](C)(CO)CN4)n2)CC1 [Compound 160] | 3.6 | ~5010 | 69 | 34 |  |  |  |
| CN1CC[C@@H](Cn2nc(Cl)cc2Nc2nccc(-c3cc(C#N)c4c(c3)[C@@](C)(CO)CN4)n2)C1 [Compound 161] | 4.3 | 2240 | 204 | 83 |  |  |  |
| CC(C)CCc1c(Nc2nccc(-c3cc(C#N)c4c(c3)[C@@](C)(CO)CN4)n2)cnn1CC1CCN(CC(F)(F)F)CC1 [Compound 163] | 12 | > 10000 | 309 | 5 |  |  |  |
| CC(C)n1nc(Nc2nccc(-c3cc(C#N)c4c(c3)[C@@](C)(CO)CN4)n2)cc1C(=O)NC1CC1 [Compound 164] | 2.6 | 4680 | 132 | < 0.66 |  |  |  |
| Cc1cc(Nc2nccc(-c3cc(C#N)c4c(c3)[C@@](C)(CO)CN4)n2)n(CCN2CCOCC2)n1 [Compound 165] | 8.5 | > 10000 | 1620 | 48 |  |  |  |
| CN1CCN(Cc2nn(C)cc2Nc2nccc(-c3cc(C#N)c4c(c3)[C@@](C)(CO)CN4)n2)CC1 [Compound 166] | 13 | > 10000 | 37 | 151 |  |  |  |
| CN1CCN(Cc2c(Nc3nccc(-c4cc(C#N)c5c(c4)[C@@](C)(CO)CN5)n3)cnn2CCC2CC2)CC1 [Compound 167] | 13 | > 10000 | 83 | 62 |  |  |  |
| CC(C)CCc1c(Nc2nccc(-c3cc(C#N)c4c(c3)[C@@](C)(CO)CN4)n2)cnn1CC1CCN(CC(F)F)CC1 [Compound 169] | 3.9 | ~7080 | 389 | 16 |  |  |  |
| Cc1c(Nc2nccc(-c3cc(C#N)c4c(c3)[C@@](C)(CO)CN4)n2)cnn1CCN1CCOCC1 [Compound 170] | 2.2 | ~1780 | 417 | 7 |  |  |  |
| Cn1ccc(Nc2nccc(-c3cc(C#N)c4c(c3)[C@@](C)(CN3CCN(C5CC5)CC3)CN4)n2)n1 [Compound 176] | 32 | ~3310 | 65 | 76 |  |  |  |
| COCCCn1nc(C)cc1Nc1nccc(-c2cc(C#N)c3c(c2)[C@@](C)(COC(C)=O)CN3)n1 [Compound 177] | 10 | > 10000 | 81 | 28 |  |  |  |
| CC(=O)OC[C@@]1(C)CNc2c(C#N)cc(-c3ccnc(Nc4cc(C)nn4CC4CCN(C)CC4)n3)cc21 [Compound 178] | 20 |  |  |  | 2340 | 98 | 141 |
| COCCc1nn(CC(F)F)cc1Nc1nccc(-c2cc(C#N)c3c(c2)[C@@](C)(CO)CN3)n1 [Compound 180] | 4.7 | ~6720 | 46 | 2 |  |  |  |
| COCCc1c(Nc2nccc(-c3cc(C#N)c4c(c3)[C@@](C)(CO)CN4)n2)cnn1CC(F)F [Compound 181] | 3.3 | ~9120 | 87 | 11 |  |  |  |
| Cc1cc(Nc2nccc(-c3cc(C#N)c4c(c3)[C@@](C)(CO)CN4)n2)nn1CCN1CCOCC1 [Compound 182] | 1.7 | 1380 | 151 | 1 |  |  |  |
